Calls of active or inactive are those of the source.
Columns and labels:
Type in all cases: functional, cell-based
786-0 = assay: Growth inhibition of human 786-0 cells at 10 uM after 48 hrs by sulforhodamine B assay
Hs-578T = assay: Growth inhibition of human Hs 578T cells at 10 uM after 48 hrs by sulforhodamine B assay
OVCAR-3 = assay: Growth inhibition of human OVCAR3 cells at 10 uM after 48 hrs by sulforhodamine B assay
HOP-62 = assay: Growth inhibition of human HOP62 cells at 10 uM after 48 hrs by sulforhodamine B assay
SK-OV-3 = assay: Growth inhibition of human SKOV3 cells at 10 uM after 48 hrs by sulforhodamine B assay
NCI-H322M = assay: Growth inhibition of human NCI-H322M cells at 10 uM after 48 hrs by sulforhodamine B assay
HCT-15 = assay: Growth inhibition of human HCT15 cells at 10 uM after 48 hrs by sulforhodamine B assay
SF-268 = assay: Growth inhibition of human SF268 cells at 10 uM after 48 hrs by sulforhodamine B assay
EKVX = assay: Growth inhibition of human EKVX cells at 10 uM after 48 hrs by sulforhodamine B assay
K562 = assay: Growth inhibition of human K562 cells at 10 uM after 48 hrs by sulforhodamine B assay
KM12 = assay: Growth inhibition of human KM12 cells at 10 uM after 48 hrs by sulforhodamine B assay
M14 = assay: Growth inhibition of human M14 cells at 10 uM after 48 hrs by sulforhodamine B assay
SF-295 = assay: Growth inhibition of human SF295 cells at 10 uM after 48 hrs by sulforhodamine B assay
SNB-19 = assay: Growth inhibition of human SNB19 cells at 10 uM after 48 hrs by sulforhodamine B assay
UO-31 = assay: Growth inhibition of human UO31 cells at 10 uM after 48 hrs by sulforhodamine B assay
LOX IMVI = assay: Growth inhibition of human LOXIMVI cells at 10 uM after 48 hrs by sulforhodamine B assay
U-251 = assay: Growth inhibition of human U251 cells at 10 uM after 48 hrs by sulforhodamine B assay
HL-60(TB) = assay: Growth inhibition of human HL-60(TB) cells at 10 uM after 48 hrs by sulforhodamine B assay
NCI-H460 = assay: Growth inhibition of human NCI-H460 cells at 10 uM after 48 hrs by sulforhodamine B assay
HCC 2998 = assay: Growth inhibition of human HCC2998 cells at 10 uM after 48 hrs by sulforhodamine B assay
MDA-MB-468 = assay: Growth inhibition of human MDA-MB-468 cells at 10 uM after 48 hrs by sulforhodamine B assay
COLO 205 = assay: Growth inhibition of human COLO205 cells at 10 uM after 48 hrs by sulforhodamine B assay
BT-549 = assay: Growth inhibition of human BT549 cells at 10 uM after 48 hrs by sulforhodamine B assay
MCF7 = assay: Growth inhibition of human MCF7 cells at 10 uM after 48 hrs by sulforhodamine B assay
SK-MEL-28 = assay: Growth inhibition of human SK-MEL-28 cells at 10 uM after 48 hrs by sulforhodamine B assay
MOLT-4 = assay: Growth inhibition of human MOLT4 cells at 10 uM after 48 hrs by sulforhodamine B assay
UACC-62 = assay: Growth inhibition of human UACC62 cells at 10 uM after 48 hrs by sulforhodamine B assay
ACHN = assay: Growth inhibition of human ACHN cells at 10 uM after 48 hrs by sulforhodamine B assay
SK-MEL-2 = assay: Growth inhibition of human SK-MEL-2 cells at 10 uM after 48 hrs by sulforhodamine B assay
CCRF-CEM = assay: Growth inhibition of human CCRF-CEM cells at 10 uM after 48 hrs by sulforhodamine B assay
DU-145 = assay: Growth inhibition of human DU145 cells at 10 uM after 48 hrs by sulforhodamine B assay
NCI-H23 = assay: Growth inhibition of human NCI-H23 cells at 10 uM after 48 hrs by sulforhodamine B assay
SK-MEL-5 = assay: Growth inhibition of human SK-MEL-5 cells at 10 uM after 48 hrs by sulforhodamine B assay
SF-539 = assay: Growth inhibition of human SF539 cells at 10 uM after 48 hrs by sulforhodamine B assay
SNB-75 = assay: Growth inhibition of human SNB75 cells at 10 uM after 48 hrs by sulforhodamine B assay
IGROV-1 = assay: Growth inhibition of human IGROV1 cells at 10 uM after 48 hrs by sulforhodamine B assay
A549 = assay: Growth inhibition of human A549/ATCC cells at 10 uM after 48 hrs by sulforhodamine B assay
A498 = assay: Growth inhibition of human A498 cells at 10 uM after 48 hrs by sulforhodamine B assay
Malme-3M = assay: Growth inhibition of human MALME-3M cells at 10 uM after 48 hrs by sulforhodamine B assay
HCT-116 = assay: Growth inhibition of human HCT116 cells at 10 uM after 48 hrs by sulforhodamine B assay
HOP-92 = assay: Growth inhibition of human HOP92 cells at 10 uM after 48 hrs by sulforhodamine B assay
HT-29 = assay: Growth inhibition of human HT-29 cells at 10 uM after 48 hrs by sulforhodamine B assay
OVCAR-8 = assay: Growth inhibition of human OVCAR8 cells at 10 uM after 48 hrs by sulforhodamine B assay
PC-3 = assay: Growth inhibition of human PC3 cells at 10 uM after 48 hrs by sulforhodamine B assay
MDA-MB-231 = assay: Growth inhibition of human MDA-MB-231 cells at 10 uM after 48 hrs by sulforhodamine B assay
OVCAR-4 = assay: Growth inhibition of human OVCAR4 cells at 10 uM after 48 hrs by sulforhodamine B assay
RXF 393 = assay: Growth inhibition of human RXF393 cells at 10 uM after 48 hrs by sulforhodamine B assay
OVCAR-5 = assay: Growth inhibition of human OVCAR5 cells at 10 uM after 48 hrs by sulforhodamine B assay
SR = assay: Growth inhibition of human SR cells at 10 uM after 48 hrs by sulforhodamine B assay
CAKI-1 = assay: Growth inhibition of human CAKI-1 cells at 10 uM after 48 hrs by sulforhodamine B assay
RPMI-8226 = assay: Growth inhibition of human RPMI8226 cells at 10 uM after 48 hrs by sulforhodamine B assay
NCI-H226 = assay: Growth inhibition of human NCI-H226 cells at 10 uM after 48 hrs by sulforhodamine B assay
SN12C = assay: Growth inhibition of human SN12C cells at 10 uM after 48 hrs by sulforhodamine B assay
T47D = assay: Growth inhibition of human T47D cells at 10 uM after 48 hrs by sulforhodamine B assay
NCI/ADR-RES = assay: Growth inhibition of human NCI-ADR-RES cells at 10 uM after 48 hrs by sulforhodamine B assay
NCI-H522 = assay: Growth inhibition of human NCI-H522 cells at 10 uM after 48 hrs by sulforhodamine B assay
TK-10 = assay: Growth inhibition of human TK10 cells at 10 uM after 48 hrs by sulforhodamine B assay
MDA-MB-435 = assay: Growth inhibition of human MDA-MB-435 cells at 10 uM after 48 hrs by sulforhodamine B assay
SW-620 = assay: Growth inhibition of human SW620 cells at 10 uM after 48 hrs by sulforhodamine B assay

Measured: growth inhibition (GI)

O=C1/C(=C\c2cccn2Cc2ccc(F)cc2)c2ccccc2N1c1c(Cl)cccc1Cl
inactive: all assays above

O=C1/C(=C\c2ccc[nH]2)c2ccccc2N1c1c(Cl)cccc1Cl
inactive: all assays above

Source: ChEMBL document CHEMBL4177730, “Rational modification of semaxanib and sunitinib for developing a tumor growth inhibitor targeting ATP binding site of tyrosine kinase” (2018)
